Measurements as given in PubChem BioAssay AID1919005 (Molecular Pharmacology Branch, DTP, NCI, 2023).

Tested on: 855422-203-R-J1-PDC complex spheroid growth
Test: Anticancer human tumor 855422-203-R-J1-PDC patient-derived bladder carcinoma cell line growth inhibition [AhR]
Details: for viability, T/C: stronger effect = lower value
Source text: Multicellular complex tumor spheroid response to aryl hydrocarbon receptor antagonists in combination with a variety of drugs and investigational agents in selected tumor cell lines
The current study was undertaken to assess response to aryl hydrocarbon receptor antagonists in combination with standard-of-care drugs and investigational agents in solid tumor complex spheroid models. Complex spheroids include a stromal component modeled by human endothelial cells (HUVEC) and fibroblasts modeled by human mesenchymal stem cells (MSCs). The concentration ranges selected for each drug and investigational agent were based upon clinically achievable concentrations if the clinical Cmax of the agent was known.
Compounds. The drugs and investigational agents: BAY 2416964 (NSC825713), GNF351 (NSC835774), CH-223191 (NSC835775), CPI-455 (NSC825282), aza-TdCyd (NSC777586), decitabine (NSC127716), belinostat (NSC758774), entinostat (NSC756642), pevonedistat (NSC761192), tazemetostat (NSC777109), talazoparib (NSC765396), olaparib (NSC753686), selinexor (NSC780203), nedisertib (M3814, NSC802822), bortezomib (NSC756655), venetoclax (NSC766270), doxorubicin (NSC123127), elimusertib (BAY189344, NSC800525), ceralasertib (AZD6738, NSC777638), TAK-243 (NSC785004), alisertib (NSC759677), etoposide (NSC141540), topotecan (NSC609699), eribulin (NSC707389), gemcitabine (NSC613327), carboplatin (NSC241240), cisplatin (NSC119875), and SN-38 (NSC673596) were obtained from the National Cancer Institute (NCI) Developmental Therapeutics Program Chemical Repository (32). The FDA-approved anticancer drug set is available from the Developmental Therapeutics Program at https://dtp.cancer.gov/organization/dscb/obtaining/available plates.htm. […] The stock solutions were prepared in dimethyl sulfoxide (DMSO, Sigma-Aldrich, St. Louis, MO, cat. D2650), except for the platinum compounds which were prepared in saline (Quality Biological, Gaithersburg, MD, cat. 114-055-101), at 800-fold the tested concentration and stored at -70 degrees C prior to their use. All drugs and investigational agents were tested over a range starting from a high concentration at or near the clinical Cmax and decreasing in half-log increments. If the clinical Cmax for an agent had not been determined, the highest concentration tested was 10 microM (Table 1).
Cell Culture. All cells were maintained in an incubator at 37 degrees C and 5% CO2 with 95% humidity. The PDC lines were cultured according to standard operating procedures established by the NCI PDMR (https://pdmr.cancer.gov). Briefly, all PDCs were thawed and cultured in Matrigel-coated flasks prepared with a working solution of 1X Ham's F-12 nutrient mix, without supplementation (Invitrogen, Waltham, MA, cat. 11765054), 100 U/mL penicillin-streptomycin (Invitrogen, cat. 15140122), and 2.5% Matrigel (Corning Inc., Corning, NY, cat. 354248) for the first three passages. All PDCs were cultured in complete DMEM/F-12 media containing advanced DMEM/F-12 (Invitrogen, cat. 12634028), 4.9% defined fetal bovine serum, heat inactivated (HyClone Laboratories Inc., Logan, UT, cat. SH30070.03HI), 389 ng/mL hydrocortisone (Sigma-Aldrich, cat. H4001), 9.7 ng/mL human EGF recombinant protein (Invitrogen, cat. PHG0313), 23.4 microg/mL adenine (Sigma-Aldrich, cat. A2786), 97.3 U/mL penicillin-streptomycin (Invitrogen, cat. 15140122), 1.9 mM L-glutamine (Invitrogen, cat. 25030081), and 9.7 microM Y-27632 dihydrochloride (Tocris Bioscience, Bristol, United Kingdom, cat. 1254). The PDCs were cultured in complete DMEM/F12 media without 10 microM Y-27632 dihydrochloride for at least two passages prior to the screen. The established cell lines NCI-H1341 and […] were cultured in DMEM/F-12, HEPES (Invitrogen, cat. 11330032), 5% defined fetal bovine serum (HyClone Laboratories Inc., cat. SH30070.03), ITS premix universal culture supplement [insulin (5 microg/mL), transferrin (5 microg/mL), and selenious acid (5 ng/mL)] […]
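Also: spheroids exposed to agents for seven days before readout.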
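For viability, T/C in this document: percent of DMSO vehicle control luminescence viability.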

CC(C)CC(NC(=O)C(Cc1ccccc1)NC(=O)c1cnccn1)B(O)O (stereo unspecified) + CC(CO)NC(=O)c1cc(-c2ccc(Cl)cc2)nn(-c2cnn(C)c2)c1=O
IC50 (curve of first compound, second compound 0.1 µM): 1.83 nM
IC50 (curve of first compound, second compound 0.316 µM): 1.82 nM
IC50 (curve of first compound, second compound 1 µM): 1.79 nM
IC50 (curve of first compound, second compound 3.16 µM): 1.55 nM
IC50 (curve of first compound, second compound 10 µM): 1.42 nM
viability, T/C (second compound 0.1 µM, first compound 0.000949 µM): 115%
viability, T/C (second compound 0.1 µM, first compound 0.003 µM): 0.93%
viability, T/C (second compound 0.1 µM, first compound 0.00949 µM): 0.37%
viability, T/C (second compound 0.1 µM, first compound 0.03 µM): 0.65%
viability, T/C (second compound 0.1 µM, first compound 0.0949 µM): 0.65%
viability, T/C (second compound 0.1 µM, first compound 0.3 µM): 0.89%
viability, T/C (second compound 0.316 µM, first compound 0.000949 µM): 113%
viability, T/C (second compound 0.316 µM, first compound 0.003 µM): 1.18%
viability, T/C (second compound 0.316 µM, first compound 0.00949 µM): 0.04%
viability, T/C (second compound 0.316 µM, first compound 0.03 µM): 0.01%
viability, T/C (second compound 0.316 µM, first compound 0.0949 µM): 0.02%
viability, T/C (second compound 0.316 µM, first compound 0.3 µM): 0.12%
viability, T/C (second compound 1 µM, first compound 0.000949 µM): 111%
viability, T/C (second compound 1 µM, first compound 0.003 µM): 0.73%
viability, T/C (second compound 1 µM, first compound 0.00949 µM): 0.02%
viability, T/C (second compound 1 µM, first compound 0.03 µM): 0.22%
viability, T/C (second compound 1 µM, first compound 0.0949 µM): 0.02%
viability, T/C (second compound 1 µM, first compound 0.3 µM): 0.11%
viability, T/C (second compound 3.16 µM, first compound 0.000949 µM): 86.3%
viability, T/C (second compound 3.16 µM, first compound 0.003 µM): 0.7%
viability, T/C (second compound 3.16 µM, first compound 0.00949 µM): 2.8%
viability, T/C (second compound 3.16 µM, first compound 0.03 µM): 0.03%
viability, T/C (second compound 3.16 µM, first compound 0.0949 µM): 0.14%
viability, T/C (second compound 3.16 µM, first compound 0.3 µM): 0.14%
viability, T/C (second compound 10 µM, first compound 0.000949 µM): 76.3%
viability, T/C (second compound 10 µM, first compound 0.003 µM): 1%
viability, T/C (second compound 10 µM, first compound 0.00949 µM): 0.16%
viability, T/C (second compound 10 µM, first compound 0.03 µM): 0.18%
viability, T/C (second compound 10 µM, first compound 0.0949 µM): 0.14%
viability, T/C (second compound 10 µM, first compound 0.3 µM): 0.2%

Cc1ccccc1N=Nc1ccc(NC(=O)c2ccnn2C)c(C)c1
viability, T/C (compound 0.1 µM): 98.6% [middle of 20 runs]
viability, T/C (compound 0.316 µM): 98.5% [middle of 20 runs]
viability, T/C (compound 1 µM): 101% [middle of 20 runs]
viability, T/C (compound 3.16 µM): 94.4% [middle of 20 runs]
viability, T/C (compound 10 µM): 80.9% [middle of 20 runs]
IC50 (compound alone, run of 06/14/2022): > 10000 nM
